Experimental data as given in patent publication US9622970B2, “Pharmaceutical composition containing lutein and antioxidant for treating and preventing human disease” (priority 2014, dated 2017).

Test: Plasma lutein concentration in chickens fed lutein or preparation of lutein (HPLC)
Type: in vivo, chicken
Details: diet with 15 mg lutein/kg for 15 days
Procedure: Chickens (50), weighing 1.0±0.2 kg, were randomly divided into two treatments, with 25 chickens each. Chickens were individually housed in cages measuring 0.2×0.2 m, and were submitted to a lighting program of 16 h light/day. Chickens were kept under a temperature of 20±5° C. Feed and water were supplied ad libitum.
After two weeks of washout period, when the chickens were fed lutein or preparation of lutein with basal diet, two groups were fed the basal diets lutein or preparation of lutein for a period of 15 days. Lutein contents were determined using a HPLC method. The basal diet contained 0.5 mg lutein/kg. The two diets were formulated to contain the same level of 15 mg lutein/kg. All feeds were prepared every day.
Morning blood samples were taken on day 0, and days 3, 6, 12 for lutein analysis. The number of eggs laid by each chicken was counted during the experiment. Blood samples were obtained by puncture of the vena ulnaris. One milliliter of blood was sampled from each chicken. The plasma was separated by centrifugation. Plasma lutein concentrations have been detected. […]
A single gradient-type HPLC system was used for the parallel analysis of plasma concentration of lutein. The HPLC systems consisted of two solvent-delivery systems detected with a 436-nm and a 280-nm filter. The samples were analyzed by HPLC method. Lutein was quantified by determining the peak area at 445 nm. […]

Work on CC1=C[C@H](O)CC(C)(C)[C@H]1/C=C/C(C)=C/C=C/C(C)=C/C=C/C=C(C)/C=C/C=C(C)/C=C/C1=C(C)C[C@@H](O)CC1(C)C [Lutein, lutein] yielded a Plasma lutein concentration of 1.20 ± 0.10 μg lutein/ml.
